According to patent US12599582B2, “Pyrrole compounds” (ALIGOS THERAPEUTICS, INC., priority 2019, dated 2026):

Tested on: HBV
Test: HBV-DNA Antiviral Assay Using HepG2.2.15 Cells (extracellular HBV DNA by qPCR)
Format: cell-based, hepatitis B virus (HBV)
Conditions: Hepatitis B virus; HBV DNA inhibition, HepG2.2.15 cells, extracellular HBV DNA by qPCR; read-out: EC50
Experimental: The following assay procedure describes the HBV antiviral assay. This assay uses HepG2.2.15 cells, which have been transfected with HBV genome, and extracellular HBV DNA quantification as endpoint. Cell viability is assessed in parallel by measuring the intracellular ATP content using the CellTiter-Glo® reagent from Promega.
On day 0, HepG2.2.15 cells were seeded in 96-well plates at a density of 6.0×10^4 cells/well (0.1 mL/well). The cells were incubated at 37° C. and 5% CO2.
On day 1, the test articles were diluted and added to cell culture wells (8 concentrations, 4-fold dilution, in duplicate). GLS4, Tenofovir and Sorafenib were used as reference compounds. 100 μL of culture medium containing the compounds was added to the plate, and the final total volume per well was 200 μL. The final concentration of DMSO in the culture medium was 0.5%. The plate map of compound treatment is shown below. The cells were cultured at 37° C. and 5% CO2 for 3 days.
On day 4, the plates were refreshed with culture media with compounds.
On day 7, cell viability was assessed using the CellTiter-Glo®, and the cell culture supernatants were collected for determination of HBV DNA by qPCR.
Extracellular DNA was isolated with QIAamp 96 DNA Blood Kit per the manufacturer's manual. HBV DNA was then quantified by qPCR with HBV specific primers and probes as specified in Table 1 using the FastStart Universal MasterMix from Roche on an ABI-7900HT. The PCR cycle program consisted of 95° C. for 10 min, followed by 40 cycles at 95° C. for 15 sec and 60° C. for 1 min.
A DNA standard was prepared by dilution of the pAAV2 HBV1.3 plasmid with concentrations ranging from 10 to 1×10^7 copies/uL and used to generate a standard curve by plotting Ct value vs. the concentration of the HBV plasmid DNA standard. The quantity of HBV DNA in each sample was determined by interpolating from the standard curve.
Cell viability was calculated as follows: % Cell viability=(luminescence value of test sample−average luminescence value of blank)/(average luminescence value of 0.5% DMSO control−average luminescence of blank)×100%. HBV DNA inhibition was calculated as follows: 100−(HBV DNA copy number of test sample−HBV DNA copy number of ETV)/HBV DNA copy number of 0.5% DMSO control−HBV DNA copy number of ETV)×100%. The CC50, EC50 and EC90 values were determined by dose-response curves fitted by GraphPad Prism using “log (agonist) vs. response—Variable slope”.

SMILES	EC50 [nM]
C=C[C@](C)(CO)NC(=O)C(=O)c1c(C)c(C(=O)Nc2ccc(F)c(C#N)c2)n(C)c1C [Compound 72a, N-(3-cyano-4-fluoro-phenyl)-1,3,5-trimethyl-4-[2-oxo-2-[[(1R)-1-(hydroxymethyl)-1-methyl-allyl]amino]acetyl]pyrrole-2-carboxamide]	1 to 10
C#C[C@](C)(CO)NC(=O)C(=O)c1c(C)c(C(=O)Nc2ccc(F)c(C(F)(F)F)c2)n(C)c1C [Compound 66a, (R)—N-(4-fluoro-3-(trifluoromethyl)phenyl)-4-(2-((1-hydroxy-2-methylbut-3-yn-2-yl)amino)-2-oxoacetyl)-1,3,5-trimethyl-1H-pyrrole-2-carboxamide]	< 1
C#C[C@H](NC(=O)C(=O)c1c(C)c(C(=O)Nc2ccc(F)c(C#N)c2)n(C)c1C)C1CC1 [Compound 23a, N-(3-cyano-4-fluoro-phenyl)-1,3,5-trimethyl-4-[2-oxo-2-[[(1R)-1-cyclopropylprop-2-ynyl]amino]acetyl]pyrrole-2-carboxamide]	< 1
C#CCNC(=O)C(=O)c1c(Cl)c(C(=O)Nc2ccc(F)c(C#N)c2)n(C)c1Br [Compound 16, 5-bromo-3-chloro-N-(3-cyano-4-fluoro-phenyl)-1-methyl-4-[2-oxo-2-(prop-2-ynylamino)acetyl]pyrrole-2-carboxamide]	10 to 100
C=C[C@@](C)(NC(=O)C(=O)c1c(C)c(C(=O)Nc2ccc(F)c(C#N)c2)n(C)c1C)C(F)(F)F [Compound 95a, N-(3-cyano-4-fluoro-phenyl)-1,3,5-trimethyl-4-[2-oxo-2-[[(1R)-1-methyl-1-(trifluoromethyl)allyl]amino]acetyl]pyrrole-2-carboxamide]	1 to 10
Cc1c(C(=O)C(=O)NC(C)(C)c2nccs2)c(C)n(C)c1C(=O)Nc1ccc(F)c(C(F)(F)F)c1 [Compound 103, N-[4-fluoro-3-(trifluoromethyl)phenyl]-1,3,5-trimethyl-4-[2-[(1-methyl-1-thiazol-2-yl-ethyl)amino]-2-oxo-acetyl]pyrrole-2-carboxamide]	1 to 10
Cc1c(C(=O)C(=O)NC2(c3c[nH]nn3)CC(F)(F)C2)c(C)n(C)c1C(=O)Nc1ccc(F)c(C#N)c1 [Compound 19, N-(3-cyano-4-fluoro-phenyl)-4-[2-[[3,3-difluoro-1-(1H-triazol-4-yl)cyclobutyl]amino]-2 oxo-acetyl]-1,3,5-trimethyl-pyrrole-2-carboxamide]	< 1
Cc1c(C(=O)C(=O)NC(C)(C)c2cccnc2)c(C)n(C)c1C(=O)Nc1ccc(F)c(C#N)c1 [Compound 92, N-(3-cyano-4-fluoro-phenyl)-1,3,5-trimethyl-4-[2-[[1-methyl-1-(3-pyridyl)ethyl]amino]-2-oxo-acetyl]pyrrole-2-carboxamide]	1 to 10
C#C[C@H](CO)NC(=O)C(=O)c1c(C)c(C(=O)Nc2ccc(F)c(C#N)c2)n(C)c1C (single isomer, unassigned) [Compound 31b]	1 to 10
C#C[C@@](C)(CO)NC(=O)C(=O)c1c(C)c(C(=O)Nc2ccc(F)c(C(F)(F)F)c2)n(C)c1C [Compound 66b, (S)—N-(4-fluoro-3-(trifluoromethyl)phenyl)-4-(2-((1-hydroxy-2-methylbut-3-yn-2-yl)amino)-2-oxoacetyl)-1,3,5-trimethyl-1H-pyrrole-2-carboxamide]	1 to 10
Cc1c(C(=O)C(=O)NC2(c3cn[nH]c3)COC2)c(C)n(C)c1C(=O)Nc1ccc(F)c(C#N)c1 [Compound 151, N-(3-cyano-4-fluoro-phenyl)-1,3,5-trimethyl-4-[2-oxo-2-[[3-(1H-pyrazol-4-yl)oxetan-3-yl]amino]acetyl]pyrrole-2-carboxamide]	1 to 10
CC#CC1(NC(=O)C(=O)c2c(C)c(C(=O)Nc3ccc(F)c(C#N)c3)n(C)c2C)COC1 [Compound 50, N-(3-cyano-4-fluoro-phenyl)-1,3,5-trimethyl-4-[2-oxo-2-[(3-prop-1-ynyloxetan-3-yl)amino]acetyl]pyrrole-2-carboxamide]	< 1
C#C[C@@](CO)(NC(=O)C(=O)c1c(C)c(C(=O)Nc2ccc(F)c(C(F)(F)F)c2)n(C)c1C)C1CC1 [Compound 65b, N-[4-fluoro-3-(trifluoromethyl)phenyl]-1,3,5-trimethyl-4-[2-oxo-2-[[(1S)-1-cyclopropyl-1-(hydroxymethyl)prop-2-ynyl]amino]acetyl]pyrrole-2-carboxamide]	1 to 10
Cc1c(C(=O)C(=O)NC(C)(C)c2ccnn2C)c(C)n(C)c1C(=O)Nc1ccc(F)c(C#N)c1 [Compound 137, N-(3-cyano-4-fluoro-phenyl)-1,3,5-trimethyl-4-[2-[[1-methyl-1-(2-methylpyrazol-3-yl)ethyl]amino]-2-oxo-acetyl]pyrrole-2-carboxamide]	1 to 10
C#CC1(NC(=O)C(=O)c2c(C)c(C(=O)Nc3ccc(F)c(C#N)c3)n(C)c2Cl)CC(F)(F)C1 [Compound 39, 5-chloro-N-(3-cyano-4-fluoro-phenyl)-4-[2-[(1-ethynyl-3,3-difluoro-cyclobutyl)amino]-2-oxo-acetyl]-1,3-dimethyl-pyrrole-2-carboxamide]	< 1
Cc1c(C(=O)C(=O)NC(C)(C)c2ccncn2)c(C)n(C)c1C(=O)Nc1ccc(F)c(C#N)c1 [Compound 152, N-(3-cyano-4-fluoro-phenyl)-1,3,5-trimethyl-4-[2-[(1-methyl-1-pyrimidin-4-yl-ethyl)amino]-2-oxo-acetyl]pyrrole-2-carboxamide]	1 to 10
C#CC1(NC(=O)C(=O)c2c(C)c(C(=O)Nc3ccc(F)c(C#N)c3)n(C)c2C)CC1 [Compound 14, N-(3-cyano-4-fluoro-phenyl)-4-[2-[(1-ethynylcyclopropyl)amino]-2-oxo-acetyl]-1,3,5-trimethyl-pyrrole-2-carboxamide]	< 1
Cc1c(C(=O)C(=O)NC(C)(C)c2ccncc2)c(C)n(C)c1C(=O)Nc1ccc(F)c(C(F)(F)F)c1 [Compound 101, N-[4-fluoro-3-(trifluoromethyl)phenyl]-1,3,5-trimethyl-4-[2-[[1-methyl-1-(4-pyridyl)ethyl]amino]-2-oxo-acetyl]pyrrole-2-carboxamide]	1 to 10
Cc1c(C(=O)C(=O)NC2(c3cn[nH]c3)COC2)c(C)n(C)c1C(=O)Nc1ccc(F)c(C(F)(F)F)c1 [Compound 158, N-[4-fluoro-3-(trifluoromethyl)phenyl]-1,3,5-trimethyl-4-[2-oxo-2-[[3-(1H-pyrazol-4-yl)oxetan-3-yl]amino]acetyl]pyrrole-2-carboxamide]	< 1
C#C[C@](C)(CO)NC(=O)C(=O)c1c(C)c(C(=O)Nc2ccc(F)c(C#N)c2)n(C)c1C [Compound 64a, N-(3-cyano-4-fluoro-phenyl)-1,3,5-trimethyl-4-[2-oxo-2-[[(1R)-1-(hydroxymethyl)-1-methyl-prop-2-ynyl]amino]acetyl]pyrrole-2-carboxamide]	1 to 10
C=CCNC(=O)C(=O)c1c(F)c(C(=O)Nc2ccc(F)c(C#N)c2)n(C)c1C [Compound 18, 4-[2-(allylamino)-2-oxo-acetyl]-N-(3-cyano-4-fluoro-phenyl)-3-fluoro-1,5-dimethyl-pyrrole-2-carboxamide]	1 to 10
C#CC1(NC(=O)C(=O)c2c(C)c(C(=O)Nc3ccc(Br)c(Cl)c3)n(C)c2C)CC(F)(F)C1 [Compound 134, N-(4-bromo-3-chloro-phenyl)-4-[2-[(1-ethynyl-3,3-difluoro-cyclobutyl)amino]-2-oxo-acetyl]-1,3,5-trimethyl-pyrrole-2-carboxamide]	1 to 10
C#C[C@](CO)(NC(=O)C(=O)c1c(C)c(C(=O)Nc2ccc(F)c(C(F)(F)F)c2)n(C)c1C)C1CC1 [Compound 65a, N-[4-fluoro-3-(trifluoromethyl)phenyl]-1,3,5-trimethyl-4-[2-oxo-2-[[(1R)-1-cyclopropyl-1-(hydroxymethyl)prop-2-ynyl]amino]acetyl]pyrrole-2-carboxamide]	< 1
C#CC1(NC(=O)C(=O)c2c(C)c(C(=O)Nc3ccc(F)c(C#N)c3)n(C)c2C)CC(O)C1 (stereo not shown) [Compound 32, N-(3-cyano-4-fluorophenyl)-4-[[(1-ethynyl-3-hydroxycyclobutyl)carbamoyl]carbonyl]-1,3,5-trimethylpyrrole-2-carboxamide]	1 to 10
C=C[C@H](NC(=O)C(=O)c1c(C)c(C(=O)Nc2ccc(F)c(C#N)c2)n(C)c1C)C(F)(F)F [Compound 36a, N-(3-cyano-4-fluoro-phenyl)-1,3,5-trimethyl-4-[2-oxo-2-[[(1S)-1-(trifluoromethyl)allyl]amino]acetyl]pyrrole-2-carboxamide]	< 1
